# PMC7567334 (Environmental Health Perspectives, 2020)
# Molecular target: T1, human (h)AR (Homo sapiens, UniProt P10275)
# T1 sequence (P10275 1-920): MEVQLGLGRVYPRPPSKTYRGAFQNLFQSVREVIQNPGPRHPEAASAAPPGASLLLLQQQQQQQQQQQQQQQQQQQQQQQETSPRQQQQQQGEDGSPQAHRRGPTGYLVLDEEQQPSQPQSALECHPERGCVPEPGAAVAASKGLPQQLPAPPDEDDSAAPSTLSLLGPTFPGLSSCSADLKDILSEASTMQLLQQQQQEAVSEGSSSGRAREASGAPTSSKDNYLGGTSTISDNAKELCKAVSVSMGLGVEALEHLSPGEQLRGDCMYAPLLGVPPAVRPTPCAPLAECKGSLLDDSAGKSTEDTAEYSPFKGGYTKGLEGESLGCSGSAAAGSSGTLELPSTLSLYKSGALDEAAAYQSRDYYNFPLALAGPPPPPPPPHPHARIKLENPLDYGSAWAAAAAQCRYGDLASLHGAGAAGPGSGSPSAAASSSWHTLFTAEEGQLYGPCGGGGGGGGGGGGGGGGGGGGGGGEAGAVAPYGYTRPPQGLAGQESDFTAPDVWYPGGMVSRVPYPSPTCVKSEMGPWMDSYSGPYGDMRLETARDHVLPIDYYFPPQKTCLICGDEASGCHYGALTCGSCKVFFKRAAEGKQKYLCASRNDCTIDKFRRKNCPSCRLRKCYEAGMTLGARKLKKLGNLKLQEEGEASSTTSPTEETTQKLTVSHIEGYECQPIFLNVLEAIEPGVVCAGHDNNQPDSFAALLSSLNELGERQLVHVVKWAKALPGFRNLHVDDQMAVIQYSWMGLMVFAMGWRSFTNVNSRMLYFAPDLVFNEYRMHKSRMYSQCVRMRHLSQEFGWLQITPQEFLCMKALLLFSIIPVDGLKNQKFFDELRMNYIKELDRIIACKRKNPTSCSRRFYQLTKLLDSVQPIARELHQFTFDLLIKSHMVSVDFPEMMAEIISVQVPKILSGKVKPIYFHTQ
# Test: AR-EcoScreen hAR transcriptional activation assay, agonist setup
# Format: cell-based
smiles,measurement,setting,value
"O=C(Nc1ccc(Cl)cc1)Nc1ccc(Cl)c(Cl)c1 [Triclocarban, 1-(4-Chlorophenyl)-3-(3,4-dichlorophenyl) urea]",higher AR RTA than vehicle control,"1 μM, vs 0.1% DMSO",40.4%
same,higher AR RTA over vehicle control,"2.5 μM, vs 0.1% DMSO",30.3%
same,"AR agonist activity, call",AR-EcoScreen,Agonist
same,concentration with AR agonist activity,AR-EcoScreen,1 to 2.5 µM
